Tests used:
Experiment in all cases: Test C flooded paddy test, plant response rating
Format in all cases: in vivo
Conditions in all cases: flood, scale 0 to 100
[1] = system: sedge, umbrella (small-flower umbrella sedge Cyperus difformis)
Excerpt: (§1) At the same time, plants selected from these crop and weed species and also chickweed (common chickweed, Stellaria media), buckwheat, wild (wild buckwheat, Polygonum convolvulus), wild mustard (Sinapis arvensis), field poppy (Papaver rhoeas), field violet (Viola arvensis), geranium, cutleaf (cutleaf geranium, Geranium dissectum), Canada thistle (Cirsium arvense), and speedwell (bird's-eye speedwell, Veronica persica), were planted in pots containing Sunshine Redi-Earth® planting medium comprising spaghnum peat moss, vermiculite, starter nutrients and dolomitic limestone and treated with postemergence applications of test chemicals formulated in the same manner. Plants ranged in height from 2 to 18 cm (1- to 4-leaf stage) for postemergence treatments. Treated plants and controls were maintained in a greenhouse for 13 to 15 d, after which time all species were compared to controls and visually evaluated. Plant response ratings, summarized in Table C, are based on a scale of 0 to 100 where 0 is no effect and 100 is complete control. A dash (-) response means no test result.
(§2) Plant species in the flooded paddy test consisted of rice (Oryza sativa), sedge, umbrella (small-flower umbrella sedge Cyperus difformis), ducksalad (Heteranthera limosa), and barnyardgrass (Echinochloa crus-galli) grown to the 2-leaf stage for testing. At time of treatment, test pots were flooded to 3 cm above the soil surface, treated by application of test compounds directly to the paddy water, and then maintained at that water depth for the duration of the test.

rice (Oryza sativa) = system: rice (Oryza sativa)
Excerpt: as §1, §2

[2] = system: ducksalad (Heteranthera limosa)
Excerpt: as §1, §2

[3] = system: barnyardgrass (Echinochloa crus-galli)
Excerpt: as §1, §2

Compound | Sedge, Umbrella plant response rating ([1]; 31 g ai/ha) | Sedge, Umbrella plant response rating ([1]; 62 g ai/ha) | Sedge, Umbrella plant response rating ([1]; 125 g ai/ha) | Sedge, Umbrella plant response rating ([1]; 250 g ai/ha) | Rice plant response rating (rice (Oryza sativa); 31 g ai/ha) | Rice plant response rating (rice (Oryza sativa); 62 g ai/ha) | Rice plant response rating (rice (Oryza sativa); 125 g ai/ha) | Rice plant response rating (rice (Oryza sativa); 250 g ai/ha) | Ducksalad plant response rating ([2]; 31 g ai/ha) | Ducksalad plant response rating ([2]; 62 g ai/ha) | Ducksalad plant response rating ([2]; 125 g ai/ha) | Ducksalad plant response rating ([2]; 250 g ai/ha) | Barnyardgrass plant response rating ([3]; 31 g ai/ha) | Barnyardgrass plant response rating ([3]; 62 g ai/ha) | Barnyardgrass plant response rating ([3]; 125 g ai/ha) | Barnyardgrass plant response rating ([3]; 250 g ai/ha)
C=C(Br)COC(=O)c1c(Br)cccc1Oc1ncc(Cl)cn1 [Compound 61] | 80 | 80 | 85 | 85 | 20 | 20 | 20 | 20 | 50 | 75 | 90 | 90 | 0 | 0 | 20 | 40
O=C(CCC(F)(F)F)c1c(Br)cccc1Oc1ncc(Cl)cn1 [Compound 92] | 20 | 60 | 90 | 100 | 10 | 15 | 15 | 15 | 30 | 60 | 95 | 100 | 0 | 0 | 20 | 40
